Data set [1] relates to PC-3. As to the kind of experiment: Cytotoxicity against docetaxel-resistant human PC-3 cells assessed as reduction in cell viability at 0.5 to 64 uM pretreated with tariquidar for 1 hrs followed by compound addition and measured after 48 hrs by MTT assay. The class given is functional, cell-based. The conditions noted are these: dose 0.5-64 µM. (In general: Formazan colour is commonly taken as a measure of viable cells.)

In the next data set the test system is PNT2. As to the kind of experiment: Cytotoxicity against human PNT2 cells assessed as reduction in cell viability at <= 100 uM incubated for 48 hrs by MTT assay. It is filed as toxicity, cell-based. The note with it: pnt2, 48 h.
The subject of data set [2] is PC-3. As to the kind of experiment: Synergistic cytotoxicity against docetaxel-resistant human PC-3 cells assessed as reduction in cell viability at 12.5 to 100 uM incubated for 48 hrs in the presence of docetaxel by MTT assay. The conditions noted are these: dose 12.5-100 µM. It is filed as functional, cell-based.
The subject of a further data set is RWPE-1. As to the kind of experiment: Cytotoxicity against human RWPE-1 cells assessed as reduction in cell viability at <= 100 uM incubated for 48 hrs by MTT assay. It is filed as toxicity, cell-based. The note with it: rwpe-1, 48 h.
Data set [3] deals with ATP-dependent translocase ABCB1 (Homo sapiens, UniProt P08183). As to the kind of experiment: Inhibition of p-glycoprotein in docetaxel-resistant human PC-3 cells assessed as inhibition of calcein excretion at 0.39 to 50 uM incubated for 30 mins by fluorescence based plate reader analysis. The class given is cell-based. The conditions noted are these: pc-3, 0.5 h, dose 0.39-50 µM.
Chain of ATP-dependent translocase ABCB1 (P08183 whole entry): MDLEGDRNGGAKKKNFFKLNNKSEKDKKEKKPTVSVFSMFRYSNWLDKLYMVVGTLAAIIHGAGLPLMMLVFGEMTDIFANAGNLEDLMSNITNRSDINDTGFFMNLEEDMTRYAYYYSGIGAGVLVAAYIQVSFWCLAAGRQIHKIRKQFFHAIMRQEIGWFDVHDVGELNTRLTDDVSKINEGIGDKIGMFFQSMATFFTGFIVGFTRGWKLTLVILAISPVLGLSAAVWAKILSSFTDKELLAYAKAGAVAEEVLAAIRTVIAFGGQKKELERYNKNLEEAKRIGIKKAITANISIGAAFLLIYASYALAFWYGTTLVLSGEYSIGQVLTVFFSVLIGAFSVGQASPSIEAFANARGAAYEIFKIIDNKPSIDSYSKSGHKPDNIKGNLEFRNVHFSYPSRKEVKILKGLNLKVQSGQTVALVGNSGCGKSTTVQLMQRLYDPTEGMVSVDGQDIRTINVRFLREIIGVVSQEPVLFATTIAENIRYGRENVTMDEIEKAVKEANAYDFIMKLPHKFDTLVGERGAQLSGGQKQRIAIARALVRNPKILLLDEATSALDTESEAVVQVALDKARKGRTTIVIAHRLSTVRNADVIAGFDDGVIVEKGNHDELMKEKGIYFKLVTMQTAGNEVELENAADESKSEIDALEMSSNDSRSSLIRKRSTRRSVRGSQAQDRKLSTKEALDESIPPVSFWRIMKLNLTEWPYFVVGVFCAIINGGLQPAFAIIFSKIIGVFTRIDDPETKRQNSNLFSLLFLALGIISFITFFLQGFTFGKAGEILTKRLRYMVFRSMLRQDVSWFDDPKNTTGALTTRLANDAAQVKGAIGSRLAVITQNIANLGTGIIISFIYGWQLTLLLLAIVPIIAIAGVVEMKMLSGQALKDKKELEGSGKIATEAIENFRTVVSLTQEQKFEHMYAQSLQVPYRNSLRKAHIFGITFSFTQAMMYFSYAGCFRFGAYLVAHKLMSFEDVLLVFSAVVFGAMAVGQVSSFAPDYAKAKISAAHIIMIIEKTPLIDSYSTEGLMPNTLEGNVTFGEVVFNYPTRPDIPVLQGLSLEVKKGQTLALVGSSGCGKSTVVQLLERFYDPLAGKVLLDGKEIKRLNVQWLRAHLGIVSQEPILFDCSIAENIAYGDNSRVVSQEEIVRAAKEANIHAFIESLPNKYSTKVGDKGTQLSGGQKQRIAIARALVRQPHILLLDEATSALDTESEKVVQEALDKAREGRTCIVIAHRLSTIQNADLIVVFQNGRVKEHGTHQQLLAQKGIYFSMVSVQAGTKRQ

Structures are written as SMILES. Active and inactive are the calls of the source. No cut-off for these calls is given here.

For `CC(=O)O[C@@]12CO[C@@H]1C[C@H](O)[C@@]1(C)C(=O)[C@H](O)C3=C(C)[C@@H](OC(=O)[C@H](O)[C@@H](NC(=O)OC(C)(C)C)c4ccccc4)C[C@@](O)([C@@H](OC(=O)c4ccccc4)[C@H]21)C3(C)C`, the outcome in the data set on PC-3 [1] was Active.
For `COC(=O)[C@H]1C(=O)O[C@]2(/C=C(\C)C(C)=O)[C@]34CC[C@H](OC(C)=O)C(C)(C)[C@H]3[C@H](C[C@]12C)OC4=O`, the Activity entry in the data set with PNT2 and with RWPE-1 was “Non-Toxic” in each case. The result in the data set on PC-3 [2] was Active. Besides, the “inhibition (INH)” value in data set [3] is on record as “Active”.
In the case of `COC(=O)[C@@]1(C(=O)C(C)=O)C(C)=C(C)C=C2[C@]34CC[C@H](OC(C)=O)C(C)(C)[C@H]3[C@H](C[C@@]21C)OC4=O`, the Activity entry with PNT2 and in the data set on RWPE-1 was “Non-Toxic” each time. Moreover, the result in the data set on PC-3 [2] was Active. In addition, the “inhibition (INH)” value in data set [3] is reported as “Active”.
For `COC(=O)[C@@]12C(=O)C(=O)O[C@@]3(C=C1C)[C@]2(C)C[C@@H]1OC(=O)[C@]32CC[C@H](OC(C)=O)C(C)(C)[C@@H]12`, the Activity entry in the data set with PNT2 and in the data set on RWPE-1 was “Non-Toxic” in each case. Also, the result with PC-3 [2] was Active. The “inhibition (INH)” value in data set [3] was “Active”.
With `C=C1C=C2[C@]34CC[C@H](OC(C)=O)C(C)(C)[C@H]3[C@H](C[C@]2(C)[C@]2(C(=O)OC)C(=O)[C@](C)(O)C(=O)[C@]12C)OC4=O`, the Activity result in the data set on PNT2 and in the data set on RWPE-1 was “Non-Toxic” in each case. The outcome with PC-3 [2] was Active. Also, in data set [3], the “inhibition (INH)” value is listed as “Active”.
